Test results taken from patent US20190022225A1, “PROTOCOL FOR INCREASING LIFE EXPECTANCY IN A TEST SUBJECT” (Mayo Foundation for Medical Education and Research, priority 2015, published 2019).

Tested on: p16-3MR mice fed a high fat diet
Assay: High fat feeding-induced senescence in p16-3MR mice, SA-β-Gal staining of adipose tissue
Format: in vivo, mouse
Conditions: 25 mg/kg daily for five consecutive days; p=<0.004
Procedure: Groups of p16-3MR mice (n=6) were fed a high fat diet (60% fat) for four months mice or a regular chow diet. The presence of senescence cells was determined by measuring luminescence (i.e., p16 positive cells). […] Animals were then treated with ganciclovir or vehicle to determine if removal of senescent cells reduced the presence of senescent cells in adipose tissue. Groups of animals were treated with ganciclovir or vehicle. Ganciclovir (25 mg/kg) was administered daily for five consecutive days. The presence of senescent cells in perirenal, epididymal, or subcutaneous inguinal adipose tissue was detected by SA-β-Gal staining. Data were analyzed by ANOVA.

Which “presence of senescent cells in epididymal fat (SA-β-Gal)” value does the source give for `Nc1nc(O)c2ncn(COC(CO)CO)c2n1` [ganciclovir] here?
Its value is “significant reduction”.
